The record followed here is patent US20240351999A1, “PYRROLYLACYLPIPERIDYLAMINE COMPOUND AND USE THEREOF” (INSTITUTE OF MATERIA MEDICA ,CHINESE ACADEMY OF MEDICAL …, priority 2021, published 2024).

≈ marks a conversion by molar mass, not a printed value. Read-outs that look alike come from different tables or passages of the source.

Holding throughout (format): cell-based
Assay [1] concerns Escherichia coli ATCC 35218. The assay can be described thus: In vitro antibacterial activity (MIC), microbroth dilution. The settings on record: read-out: MIC Escherichia coli ATCC 35218. (Dilution methods test growth across graded concentrations, often in twofold steps.)
In assay [2] the test system is Enterococcus faecium EFM 19-1. The assay is described as above. Conditions: EFM191, 37° C., 18 h.
Assay [3] concerns Clostridium difficile ATCC 9689. Described as above.
Assay [4] has as its system Staphylococcus aureus MRSA 15-1. Described as above. Conditions: 37° C., 18 h.
Assay [5] has as its system Enterococcus faecalis ATCC 51575. Described as above. The settings on record: ATCC51575, 37° C., 18 h.
Assay [6] has as its system Escherichia coli ECO+ 15-1. The assay is described as above. The settings on record: 18 h, read-out: MIC Escherichia coli ECO+ 15-1.
The test system of assay [7] is Klebsiella pneumoniae KPN-15-1. Described as above. The settings on record: read-out: MIC Klebsiella pneumoniae KPN-15-1.
Assay [8] has as its system Acinetobacter baumannii ATCC 19606. The assay is described as above. The settings on record: read-out: MIC Acinetobacter baumannii ATCC 19606.
In assay [9] the test system is Pseudomonas aeruginosa ATCC 27853. The description is as above. Conditions: read-out: MIC Pseudomonas aeruginosa ATCC 27853.
For assay [10], the system named is Staphylococcus epidermidis MRSE 15-1. The assay is described as above. Conditions: 37° C., 18 h.
The subject of assay [11] is Staphylococcus aureus ATCC 25923. Described as above. Conditions: ATCC25923, 37° C., 18 h.
Assay [12] deals with Staphylococcus aureus ATCC 43300 (MRSA). The description is as above. The settings on record: 37° C., 18 h, read-out: MIC Staphylococcus aureus ATCC 43300 (MRSA).
Assay [13] concerns Staphylococcus epidermidis ATCC 12228. Described as above. The settings on record: ATCC12228, 37° C., 18 h.
In assay [14] the test system is Escherichia coli ATCC 25922. The description is as above. The settings on record: read-out: MIC Escherichia coli ATCC 25922.
For assay [15], the system named is Mycobacterium tuberculosis. Briefly: Activity against Mycobacterium tuberculosis (MIC). The settings on record: read-out: Inhibitory activity (MIC) against Mycobacterium tuberculosis.
In assay [16] the test system is Staphylococcus aureus ATCC 29213. Briefly: In vitro antibacterial activity (MIC), microbroth dilution. The settings on record: ATCC29213, 37° C., 18 h.

As for `CO[C@H]1CN(c2nnc(C(C)(C)O)s2)CC[C@H]1NC(=O)c1[nH]c(C)c(Cl)c1Cl` [Compound 2, 3,4-Dichloro-N-((3S,4R)-1-(5-(2-hydroxypropan-2-yl)-1,3,4-thiadiazol-2-yl)-3-methoxypiperidin-4-yl)-5-methyl-1H-pyrrole-2-carboxamide], the MIC in assay [1] (ATCC35218, 37° C., 18 h) was 1 µg/mL (≈ 2.23 µM); in [2] it was no more than 0.03 µg/mL; in assay [3] (Clostridioides difficile, ATCC9689; read-out: MIC Clostridium difficile ATCC 9689), 0.25 µg/mL (≈ 0.558 µM); in [4], no more than 0.03 µg/mL; in assay [5], no more than 0.03 µg/mL; in assay [6] (37° C.), 16 µg/mL (≈ 35.7 µM). Besides, the MIC is 16 µg/mL (≈ 35.7 µM) in assay [7] (KPN151, 37° C., 18 h); 16 µg/mL (≈ 35.7 µM) in assay [8] (ATCC19606, 37° C., 18 h); 8 µg/mL (≈ 17.8 µM) in assay [9] (ATCC27853, 37° C., 18 h); no more than 0.03 µg/mL in [10]; no more than 0.03 µg/mL in [11]; no more than 0.03 µg/mL in assay [12]. For the same compound, the MIC in [13] is no more than 0.03 µg/mL; in [14] (ATCC25922, 37° C., 18 h) it was 2 µg/mL (≈ 4.46 µM); in assay [15] it was 0.595 µg/mL (≈ 1.33 µM); in [16], 0.008 µg/mL (≈ 0.0178 µM). For the same compound, the “Activity against Clostridium difficile compared with controls” value in [3] (vs DS2969 and vancomycin) was “stronger than those of DS2969 and the positive control drug vancomycin”.

On to `CO[C@H]1CN(c2cnc(C(C)(C)O)cn2)CC[C@H]1NC(=O)c1[nH]c(C)c(Cl)c1Cl` [Compound 4, 3,4-Dichloro-N-((3S,4R)-1-(5-(2-hydroxypropan-2-yl)pyrazin-2-yl)-3-methoxypiperidin-4-yl)-5-methyl-1H-pyrrole-2-carboxamide], for which the MIC in assay [13] was 0.5 µg/mL (≈ 1.13 µM); in assay [16], 0.25 µg/mL (≈ 0.565 µM).

In the case of `CO[C@H]1CN(c2ncc(C(C)(C)O)s2)CC[C@H]1NC(=O)c1[nH]c(C)c(Cl)c1Cl` [Compound 6, 3,4-Dichloro-N-((3S,4R)-1-(5-(2-hydroxypropan-2-yl)thiazol-2-yl)-3-methoxypiperidin-4-yl)-5-methyl-1H-pyrrole-2-carboxamide], the MIC in assay [13] and in assay [16] was 0.25 µg/mL (≈ 0.559 µM) throughout.

Take `CO[C@H]1CN(c2ccc(C3(O)CCCC3)nn2)CC[C@H]1NC(=O)c1[nH]c(C)c(Cl)c1Cl` [Compound 7, 3,4-Dichloro-N-((3S,4R)-1-(6-(1-hydroxycyclopentyl)pyridazin-3-yl)-3-methoxypiperidin-4-yl)-5-methyl-1H-pyrrole-2-carboxamide]: the MIC is 0.125 µg/mL (≈ 0.267 µM) in assay [13]; 8 µg/mL (≈ 17.1 µM) in [14] (ATCC25922, 37° C., 18 h); no more than 0.03 µg/mL in assay [16].

With `CO[C@H]1CN(c2ccc(C3(O)CCCCC3)nn2)CC[C@H]1NC(=O)c1[nH]c(C)c(Cl)c1Cl` [Compound 8, 3,4-Dichloro-N-((3S,4R)-1-(6-(1-hydroxycyclohexyl)pyridazin-3-yl)-3-methoxypiperidin-4-yl)-5-methyl-1H-pyrrole-2-carboxamide], the MIC in [13] is no more than 0.03 µg/mL; in [14] (ATCC25922, 37° C., 18 h), 16 µg/mL (≈ 33.2 µM); in assay [16] it was no more than 0.03 µg/mL.

`C[C@H]1COc2c(N3CCN(C)CC3)c(F)cc3c(=O)c(C(=O)O)cn1c23` [Levofloxacin, reference compound]: the MIC in [1] (ATCC35218, 37° C., 18 h) is no more than 0.06 µg/mL; in assay [2], 0.5 µg/mL (≈ 1.38 µM); in assay [4] it was 16 µg/mL (≈ 44.3 µM); in assay [5] it was 0.5 µg/mL (≈ 1.38 µM); in [6] (37° C.), 8 µg/mL (≈ 22.1 µM); in assay [7] (KPN151, 37° C., 18 h), 0.5 µg/mL (≈ 1.38 µM). The MIC was 0.25 µg/mL (≈ 0.692 µM) in assay [8] (ATCC19606, 37° C., 18 h); 2 µg/mL (≈ 5.53 µM) in assay [9] (ATCC27853, 37° C., 18 h); 4 µg/mL (≈ 11.1 µM) in [10]; 0.25 µg/mL (≈ 0.692 µM) in assay [11]; 0.25 µg/mL (≈ 0.692 µM) in assay [12]; 0.125 µg/mL (≈ 0.346 µM) in [13]. Besides, the MIC was no more than 0.06 µg/mL in assay [14] (ATCC25922, 37° C., 18 h) and 0.25 µg/mL (≈ 0.692 µM) in [16].

Take `CN[C@H](CC(C)C)C(=O)N[C@H]1C(=O)N[C@@H](CC(N)=O)C(=O)N[C@H]2C(=O)N[C@H]3C(=O)N[C@H](C(=O)N[C@H](C(=O)O)c4cc(O)cc(O)c4-c4cc3ccc4O)[C@H](O)c3ccc(c(Cl)c3)Oc3cc2cc(c3O[C@@H]2O[C@H](CO)[C@@H](O)[C@H](O)[C@H]2O[C@H]2C[C@](C)(N)[C@H](O)[C@H](C)O2)Oc2ccc(cc2Cl)[C@H]1O` [Vancomycin]: the MIC was greater than 64 µg/mL in assay [1] (ATCC35218, 18 h); 2 µg/mL (≈ 1.38 µM) in assay [3] (Clostridioides difficile, ATCC9689, read-out: MIC Clostridium difficile ATCC 9689); greater than 64 µg/mL in assay [6]; greater than 64 µg/mL in [7] (KPN151, 18 h); greater than 64 µg/mL in assay [8] (ATCC19606, 18 h); greater than 64 µg/mL in [9] (ATCC27853, 18 h). Moreover, the MIC in assay [14] (ATCC25922, 18 h) was greater than 64 µg/mL.

Usually MIC stands for the lowest concentration that inhibits growth of the organism.
